Where two headings read alike, the source gives them in different places.
Tested on: 134 cancer cell lines
Assay: Cell viability assay (ATPlite, 72 hours), IC50 on cancer cell line panel

With `CN1CCN(c2ccc(C(=O)Nc3n[nH]c4ccc(Cc5cc(F)cc(F)c5)cc34)c(NC3CCOCC3)c2)CC1` [entrectinib] the IC50 (HEC-6, read-out: IC50 in cell proliferation assay, HEC-6 cell line (EGFR p.A289V)) was 6.83 µM, the IC50 (Homo sapiens, 769-P, read-out: IC50 in cell proliferation assay, cell line 769-P) was 6.69 µM and the IC50 (Homo sapiens, 786-0, read-out: IC50 in cell proliferation assay, cell line 786-O) was 5.12 µM. It also gave an IC50 (Homo sapiens, A 172, read-out: IC50 in cell proliferation assay, cell line A-172) of 4.96 µM, an IC50 (Homo sapiens, A204, read-out: IC50 in cell proliferation assay, cell line A-204) of 5.98 µM and an IC50 (Homo sapiens, A498, read-out: IC50 in cell proliferation assay, cell line A-498) of 7.97 µM. It also gave an IC50 (Homo sapiens, A549, read-out: IC50 in cell proliferation assay, cell line A-549) of 8.78 µM, an IC50 (Homo sapiens, A704, read-out: IC50 in cell proliferation assay, cell line A-704) of 6.87 µM and an IC50 (Homo sapiens, A-375, read-out: IC50 in cell proliferation assay, cell line A-375 (BRAF p.V600E)) of 5.84 µM. It also gave an IC50 (Homo sapiens, A-427, read-out: IC50 in cell proliferation assay, cell line A-427) of 3.49 µM, an IC50 (Homo sapiens, ACHN, read-out: IC50 in cell proliferation assay, cell line ACHN) of 5.79 µM and an IC50 (Homo sapiens, AN3-CA, read-out: IC50 in cell proliferation assay, cell line AN3-CA (FGFR2 p.N549K)) of 3.78 µM. The IC50 (Homo sapiens, ASPC1, read-out: IC50 in cell proliferation assay, cell line AsPC-1) was 7.99 µM, the IC50 (Homo sapiens, AU565, read-out: IC50 in cell proliferation assay, cell line AU565 (ERBB2 amplification)) was 8.63 µM and the IC50 (Homo sapiens, BT-20, read-out: IC50 in cell proliferation assay, cell line BT-20) was 10.7 µM. It also gave an IC50 (Homo sapiens, BT-474, read-out: IC50 in cell proliferation assay, cell line BT-474 (ERBB2 amplification)) of 6.15 µM, an IC50 (Homo sapiens, BT-549, read-out: IC50 in cell proliferation assay, cell line BT-549) of 7.41 µM and an IC50 (Homo sapiens, BXPC-3, read-out: IC50 in cell proliferation assay, cell line BxPC-3) of 6.09 µM. For the same compound, the IC50 (Homo sapiens, C-33-A, read-out: IC50 in cell proliferation assay, cell line C-33 A) was 5.23 µM, the IC50 (Homo sapiens, CAL-27, read-out: IC50 in cell proliferation assay, cell line CAL-27) was 5.15 µM and the IC50 (Homo sapiens, CCF-STTG1, read-out: IC50 in cell proliferation assay, cell line CCF-STTG1) was 10.7 µM. The IC50 (Homo sapiens, CCRF-CEM, read-out: IC50 in cell proliferation assay, cell line CCRF-CEM) was 9.03 µM, the IC50 (Homo sapiens, COLO 205, read-out: IC50 in cell proliferation assay, cell line COLO 205 (BRAF p.V600E)) was 7.72 µM and the IC50 (Homo sapiens, COLO-829, read-out: IC50 in cell proliferation assay, cell line COLO 829 (BRAF p.V600E)) was 8.95 µM. It also gave an IC50 (Homo sapiens, DLD-1, read-out: IC50 in cell proliferation assay, cell line DLD-1) of 10.5 µM, an IC50 (Homo sapiens, DU-4475, read-out: IC50 in cell proliferation assay, cell line DU4475 (BRAF p.V600E)) of 8.22 µM and an IC50 (Homo sapiens, Daoy, read-out: IC50 in cell proliferation assay, cell line Daoy) of 5.1 µM. For the same compound, the IC50 (Homo sapiens, DoTc2-4510, read-out: IC50 in cell proliferation assay, cell line DoTc2 4510) was 4.69 µM, the IC50 (Homo sapiens, EOL1, read-out: IC50 in cell proliferation assay, cell line EoL-1 (FIP1L1-PDGFRA)) was 0.512 µM and the IC50 (Homo sapiens, FaDu, read-out: IC50 in cell proliferation assay, cell line FaDu) was 5.64 µM. For the same compound, the IC50 (Homo sapiens, G-361, read-out: IC50 in cell proliferation assay, cell line G-361 (BRAF p.V600E)) was 4.67 µM, the IC50 (Homo sapiens, HCC827, read-out: IC50 in cell proliferation assay, cell line HCC827 (EGFR exon19del)) was 2.98 µM and the IC50 (Homo sapiens, HCC4006, read-out: IC50 in cell proliferation assay, cell line HCC4006 (EGFR exon19del)) was 4.96 µM. The IC50 (Homo sapiens, HCT-15, read-out: IC50 in cell proliferation assay, cell line HCT 15) was 7.64 µM, the IC50 (Homo sapiens, HCT-116, read-out: IC50 in cell proliferation assay, cell line HCT 116) was 4.66 µM and the IC50 (Homo sapiens, HEC-1, read-out: IC50 in cell proliferation assay, HEC-1 cell line) was 3.73 µM. It also gave an IC50 (Homo sapiens, HEC-1B, read-out: IC50 in cell proliferation assay, HEC-1-B cell line (EGFR p.A864V)) of 2.24 µM, an IC50 (Homo sapiens, HL-60, read-out: IC50 in cell proliferation assay, HL-60 cell line) of 5.68 µM and an IC50 (Homo sapiens, HT, read-out: IC50 in cell proliferation assay, HT cell line) of 12 µM. It also gave an IC50 (Homo sapiens, HT-1080, read-out: IC50 in cell proliferation assay, HT-1080 cell line) of 7.36 µM, an IC50 (Homo sapiens, Hs746T, read-out: IC50 in cell proliferation assay, Hs 746.T cell line (MET exon14skip + amplification)) of 10.9 µM and an IC50 (Homo sapiens, Hs-578T, read-out: IC50 in cell proliferation assay, Hs 578T cell line) of 7.05 µM. It also gave an IC50 (Homo sapiens, HuTu80, read-out: IC50 in cell proliferation assay, HuTu 80 cell line) of 3.57 µM, an IC50 (Homo sapiens, J82, read-out: IC50 in cell proliferation assay, J82 cell line) of 7.16 µM and an IC50 (Homo sapiens, Jurkat E6.1, read-out: IC50 in cell proliferation assay, Jurkat E6.1 cell line) of 8.24 µM. It also gave an IC50 (Homo sapiens, K562, read-out: IC50 in cell proliferation assay, K-562 cell line) of 5.82 µM, an IC50 (Homo sapiens, KATO III, read-out: IC50 in cell proliferation assay, KATO III cell line (FGFR2 amplification)) of 1.43 µM and an IC50 (Homo sapiens, KG-1, read-out: IC50 in cell proliferation assay, KG-1 cell line (FGFR1OP2-FGFR1)) of 1.53 µM. The IC50 (Homo sapiens, KLE, read-out: IC50 in cell proliferation assay, KLE cell line) was 4.33 µM, the IC50 (Homo sapiens, KMS-11, read-out: IC50 in cell proliferation assay, KMS-11 cell line (FGFR3 p.Y373C)) was 4.82 µM and the IC50 (Homo sapiens, KU812, read-out: IC50 in cell proliferation assay, Ku812 cell line) was 4.72 µM. For the same compound, the IC50 (Homo sapiens, Kasumi 1, read-out: IC50 in cell proliferation assay, Kasumi-1 cell line (KIT p.N822K)) was 3.68 µM, the IC50 (Homo sapiens, LC-2-ad, read-out: IC50 in cell proliferation assay, LC-2/ad cell line (CCDC6-RET)) was 1.81 µM and the IC50 (Homo sapiens, LNCaP-Clone-FGC, read-out: IC50 in cell proliferation assay, LNCaP clone FGC cell line) was 10.9 µM. It also gave an IC50 (Homo sapiens, LS174T, read-out: IC50 in cell proliferation assay, LS174T cell line) of 4.9 µM, an IC50 (Homo sapiens, LS-411N, read-out: IC50 in cell proliferation assay, LS411N cell line (BRAF p.V600E)) of 9.55 µM and an IC50 (Homo sapiens, LoVo, read-out: IC50 in cell proliferation assay, LoVo cell line) of 9.52 µM. The IC50 (Homo sapiens, MCF7, read-out: IC50 in cell proliferation assay, MCF-7 cell line) was 3.83 µM, the IC50 (Homo sapiens, MDA-MB-231, read-out: IC50 in cell proliferation assay, MDA-MB-231 cell line) was 4.59 µM and the IC50 (Homo sapiens, MDA-MB-453, read-out: IC50 in cell proliferation assay, MDA-MB-453 cell line) was 11.5 µM. For the same compound, the IC50 (Homo sapiens, MDA-MB-468, read-out: IC50 in cell proliferation assay, MDA-MB-468 cell line) was 11 µM, the IC50 (Homo sapiens, MG-63, read-out: IC50 in cell proliferation assay, MG-63 cell line) was 3.8 µM and the IC50 (Homo sapiens, MIA PaCa-2, read-out: IC50 in cell proliferation assay, MIA PaCa-2 cell line) was 5.16 µM. It also gave an IC50 (Homo sapiens, MKN-45, read-out: IC50 in cell proliferation assay, MKN45 cell line (MET amplification)) of 11.8 µM, an IC50 (Homo sapiens, MOLM-13, read-out: IC50 in cell proliferation assay, MOLM-13 cell line (FLT3 ITD)) of 0.214 µM and an IC50 (Homo sapiens, MOLT-4, read-out: IC50 in cell proliferation assay, MOLT-4 cell line) of 11.3 µM. It also gave an IC50 (Homo sapiens, MV4-11, read-out: IC50 in cell proliferation assay, MV4-11 cell line (FLT3 ITD)) of 0.281 µM, an IC50 (Homo sapiens, MeWo, read-out: IC50 in cell proliferation assay, MeWo cell line) of 10.1 µM and an IC50 (Homo sapiens, NCCIT, read-out: IC50 in cell proliferation assay, NCC-IT cell line) of 6.38 µM. For the same compound, the IC50 (Homo sapiens, NCI-H82, read-out: IC50 in cell proliferation assay, cell line NCI-H82) was 9.7 µM and the IC50 (Homo sapiens, NCI-H460, read-out: IC50 in cell proliferation assay, NCI-H460 cell line) was 9.99 µM.

— publication PMC9516332 (Frontiers in Oncology, 2022)
